Assay results from ChEMBL document CHEMBL1141061, “Structural elucidation of A-74528, an inhibitor for 2',5'-phosphodiesterase isolated from Streptomyces sp” (Bioorg Med Chem Lett, 2005).
≈ marks a conversion by molar mass, not a printed value.

Experiment: Inhibitory concentration against human 2'-phosphodiesterase

- IC50: 34 µg/mL (≈ 60.7 µM)
Structure (SMILES): C[C@@H]1c2c(O)cc(O)c3c2[C@H]2[C@H](CC(=O)C4=C(O)c5c(O)cc(O)cc5[C@@H](C3=O)[C@]42Cc2cc(O)cc(=O)o2)[C@H]1O
